Assay results as given in US6737383B1, “Herbicidal oxadiazolidines” (priority 1999, dated 2004).

What was measured:
bermuda-grass [1] = assay: Test D bermudagrass; format: in vivo, Cynodon dactylon; conditions: Preemergence, 0 to 100 scale
Outline: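 Herbicide screen in the greenhouse. A non-phytotoxic solvent mixture with surfactant carried the test chemical; in pre-emergence tests it went onto the soil of pots seeded no more than a day earlier. Injury was scored by eye 14 to 21 days after application, 0 to 100.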

large crabgrass = assay: Test D large crabgrass; format: in vivo, Digitaria sanguinalis; conditions: Preemergence, 0 to 100 scale
Text: (§1) Seeds, tubers, or plant parts of Alexandergrass (Brachiaria plantaginea), bermuda-grass (Cynodon dactylon), common pursiane (Portulaca oleracea), common ragweed (Ambrosia elatior), common groundsel (Senecio vulgaris), dallisgrass (Paspalum dilatatum), goosegrass (Eleusine indica), guineagrass (Panicum maximum), itchgrass (Rottboellia exaltata), Johnson grass (Sorghum halepense), large crabgrass (Digitaria sanguinalis), pitted morningglory (Ipomoea lacunosa), purple nutsedge (Cyperus rotundus), sandbur (Cenchrus echinatus), sourgrass (Trichachne insularis), Spanishneedles (Bidens bipinnata), surinam grass (Brachiaria decumbens) and tall mallow (Malva sylvestris) were planted into greenhouse pots of flats containing greenhouse planting medium. Plant species were grown in separate pots or individual compartments. Preemergence applications were made within one day of planting the seed or plant part.
(§2) Test chemicals were formulated in a non-phytotoxic solvent mixture which included a surfactant and applied preemergence to the surface of the pot containing seeds in a sandy loam soil. Untreated control pots and treated pots were placed in the greenhouse for growth and visually evaluated for injury 14 to 21 days after herbicide application. Plant response ratings, summarized in Table C, are based on a 0 to 100 scale where 0 is no injury and 100 is complete control. A dash (−) response means no test result.

purple nutsedge = assay: Test D purple nutsedge; format: in vivo, Cyperus rotundus; conditions: Preemergence, 0 to 100 scale
Text: as §1, §2

sandbur [2] = assay: Test D sandbur; format: in vivo, Cenchrus echinatus; conditions: Preemergence, 0 to 100 scale
Text: as §1, §2

guineagrass = assay: Test D guineagrass; format: in vivo, Panicum maximum; conditions: Postemergence, 0 to 100 scale
bermuda-grass [3] = assay: Test D bermudagrass; format: in vivo, Cynodon dactylon; conditions: Postemergence, 0 to 100 scale
common ragweed = assay: Test D common ragweed; format: in vivo, Ambrosia elatior; conditions: Postemergence, 0 to 100 scale
surinam grass = assay: Test D surinam grass; format: in vivo, Brachiaria decumbens; conditions: Postemergence, 0 to 100 scale
sandbur [4] = assay: Test D sandbur; format: in vivo, Cenchrus echinatus; conditions: Postemergence, 0 to 100 scale
Green foxtail [5] = assay: Test D green foxtail; format: in vivo; conditions: Rate 250 g/ha; Postemergence; 0 to 100 scale
Green foxtail [6] = assay: Test D green foxtail; format: in vivo; conditions: Postemergence, 0 to 100 scale, 0 no injury, 100 complete control
tall mallow = assay: Test D tall mallow; format: in vivo, Malva sylvestris; conditions: Postemergence, 0 to 100 scale
pitted morningglory = assay: Test D pitted morningglory; format: in vivo, Ipomoea lacunosa; conditions: Postemergence, 0 to 100 scale
Green foxtail [7] = assay: Test D green foxtail; format: in vivo; conditions: Rate 250 g/ha; Postemergence; 0 to 100 scale; remark: listed apart in the source
common pursiane = assay: Test D common purslane; format: in vivo, Portulaca oleracea; conditions: Postemergence, 0 to 100 scale
Johnson grass = assay: Test D Johnson grass; format: in vivo, Sorghum halepense; conditions: Postemergence, 0 to 100 scale
Spanishneedles = assay: Test D Spanishneedles; format: in vivo, Bidens bipinnata; conditions: Postemergence, 0 to 100 scale
common groundsel = assay: Test D common groundsel; format: in vivo, Senecio vulgaris; conditions: Postemergence, 0 to 100 scale
Alexandergrass = assay: Test D Alexandergrass; format: in vivo, Brachiaria plantaginea; conditions: Postemergence, 0 to 100 scale
Green foxtail [8] = assay: Test D green foxtail; format: in vivo; conditions: Postemergence, 0 to 100 scale, 0 no injury, 100 complete control; remark: listed apart in the source
itchgrass = assay: Test D itchgrass; format: in vivo, Rottboellia exaltata; conditions: Postemergence, 0 to 100 scale
Green foxtail [9] = assay: Test D green foxtail; format: in vivo; conditions: Postemergence, 0 to 100 scale, 0 no injury, 100 complete control; remark: listed apart in the source
[10] = Rate 32 g/ha, 0 no injury, 100 complete control
[11] = Rate 64 g/ha, 0 no injury, 100 complete control
[12] = Rate 125 g/ha, 0 no injury, 100 complete control
[13] = Rate 16 g/ha, 0 no injury, 100 complete control

Cc1ccc(-n2c(=O)on(C(=O)N(c3ccc(F)cc3F)C(C)C)c2=O)c(C)c1 [Compound 24]
Plant response rating, Bermudagrass (bermuda-grass [1]; [10]): 75 | Plant response rating, Bermudagrass (bermuda-grass [1]; [11]): 95 | Plant response rating, Bermudagrass (bermuda-grass [1]; [12]): 98 | Plant response rating, Bermudagrass (bermuda-grass [1]; Rate 250 g/ha): 100 | Plant response rating, Bermudagrass (bermuda-grass [1]; Rate 500 g/ha): 100 | Plant response rating, Large crabgrass (large crabgrass; [10]): 70 | Plant response rating, Large crabgrass (large crabgrass; [11]): 70 | Plant response rating, Large crabgrass (large crabgrass; [12]): 100 | Plant response rating, Large crabgrass (large crabgrass; Rate 250 g/ha): 100 | Plant response rating, Large crabgrass (large crabgrass; Rate 500 g/ha): 100 | Plant response rating, Purple nutsedge (purple nutsedge; [10]): 0 | Purple nutsedge plant response rating (purple nutsedge; [11]): 0 | Purple nutsedge plant response rating (purple nutsedge; [12]): 0 | Plant response rating, Purple nutsedge (purple nutsedge; Rate 250 g/ha): 0 | Plant response rating, Purple nutsedge (purple nutsedge; Rate 500 g/ha): 0 | Plant response rating, Sandbur (sandbur [2]; [10]): 20 | Sandbur plant response rating (sandbur [2]; [11]): 20 | Sandbur plant response rating (sandbur [2]; [12]): 20 | Plant response rating, Sandbur (sandbur [2]; Rate 250 g/ha): 20 | Plant response rating, Sandbur (sandbur [2]; Rate 500 g/ha): 100

CC(C)N(C(=O)n1oc(=O)n(C(C)C)c1=O)c1ccccc1 [Compound 113]
Plant response rating, Bermudagrass (bermuda-grass [1]; [13]): 98 | Plant response rating, Bermudagrass (bermuda-grass [1]; [10]): 100 | Plant response rating, Bermudagrass (bermuda-grass [1]; [11]): 100 | Plant response rating, Bermudagrass (bermuda-grass [1]; [12]): 100 | Plant response rating, Large crabgrass (large crabgrass; [13]): 85 | Plant response rating, Large crabgrass (large crabgrass; [10]): 100 | Plant response rating, Large crabgrass (large crabgrass; [11]): 100 | Plant response rating, Large crabgrass (large crabgrass; [12]): 100 | Plant response rating, Purple nutsedge (purple nutsedge; [13]): 0 | Plant response rating, Purple nutsedge (purple nutsedge; [10]): 0 | Purple nutsedge plant response rating (purple nutsedge; [11]): 20 | Purple nutsedge plant response rating (purple nutsedge; [12]): 30 | Plant response rating, Sandbur (sandbur [2]; [13]): 0 | Plant response rating, Sandbur (sandbur [2]; [10]): 65 | Sandbur plant response rating (sandbur [2]; [11]): 75 | Sandbur plant response rating (sandbur [2]; [12]): 100

CC(C)N(C(=O)n1oc(=O)n(CC2CCCO2)c1=O)c1ccc(F)cc1 (centres unmarked) [Compound 343]
Plant response rating, Guineagrass (guineagrass; [13]): 0 | Plant response rating, Guineagrass (guineagrass; [10]): 0 | Guineagrass plant response rating (guineagrass; [11]): 80 | Plant response rating, Guineagrass (guineagrass; [11]): 0 | Plant response rating, Guineagrass (guineagrass; [12]): 50 | Plant response rating, Guineagrass (guineagrass; Rate 250 g/ha): 100 | Plant response rating, Bermudagrass (bermuda-grass [3]; [13]): 0 | Plant response rating, Bermudagrass (bermuda-grass [3]; [10]): 80 | Plant response rating, Bermudagrass (bermuda-grass [3]; [11]): 60 | Plant response rating, Bermudagrass (bermuda-grass [3]; [12]): 100 | Plant response rating, Bermudagrass (bermuda-grass [3]; Rate 250 g/ha): 100 | Plant response rating, C. ragweed (common ragweed; [13]): 0 | Plant response rating, C. ragweed (common ragweed; [10]): 0 | Plant response rating, C. ragweed (common ragweed; [11]): 0 | Plant response rating, C. ragweed (common ragweed; [12]): 60 | Plant response rating, C. ragweed (common ragweed; Rate 250 g/ha): 90 | Plant response rating, Surinam grass (surinam grass; [13]): 0 | Plant response rating, Surinam grass (surinam grass; [10]): 20 | Surinam grass plant response rating (surinam grass; [11]): 20 | Surinam grass plant response rating (surinam grass; [12]): 70 | Plant response rating, Surinam grass (surinam grass; Rate 250 g/ha): 100 | Plant response rating, Sandbur (sandbur [4]; [13]): 0 | Plant response rating, Sandbur (sandbur [4]; [10]): 0 | Sandbur plant response rating (sandbur [4]; [11]): 0 | Sandbur plant response rating (sandbur [4]; [12]): 50 | Plant response rating, Sandbur (sandbur [4]; Rate 250 g/ha): 50 | Plant response rating, Green foxtail (Green foxtail [5]): 100 | Plant response rating, Green foxtail (Green foxtail [6]; Rate 16 g/ha): 0 | Plant response rating, Green foxtail (Green foxtail [6]; Rate 32 g/ha): 100 | Plant response rating, Tall Mallow (tall mallow; [13]): 0 | Plant response rating, Tall Mallow (tall mallow; [10]): 0 | Tall Mallow plant response rating (tall mallow; [11]): 0 | Tall Mallow plant response rating (tall mallow; [12]): 0 | Plant response rating, Tall Mallow (tall mallow; Rate 250 g/ha): 30 | Plant response rating, P. morninglory (pitted morningglory; [13]): 0 | Plant response rating, P. morninglory (pitted morningglory; [10]): 0 | Plant response rating, P. morninglory (pitted morningglory; [11]): 0 | Plant response rating, P. morninglory (pitted morningglory; [12]): 0 | Plant response rating, P. morninglory (pitted morningglory; Rate 250 g/ha): 0 | Plant response rating, Green foxtail (Green foxtail [7]): 100 | Plant response rating, C. purslane (common pursiane; [13]): 0 | Plant response rating, C. purslane (common pursiane; [10]): 0 | Plant response rating, C. purslane (common pursiane; [11]): 0 | Plant response rating, C. purslane (common pursiane; [12]): 0 | Plant response rating, C. purslane (common pursiane; Rate 250 g/ha): 0 | Plant response rating, Johnsongrass (Johnson grass; [13]): 0 | Plant response rating, Johnsongrass (Johnson grass; [10]): 0 | Plant response rating, Johnsongrass (Johnson grass; [11]): 20 | Plant response rating, Johnsongrass (Johnson grass; [12]): 20 | Plant response rating, Johnsongrass (Johnson grass; Rate 250 g/ha): 100 | Plant response rating, Spanishneedles (Spanishneedles; [13]): 0 | Plant response rating, Spanishneedles (Spanishneedles; [10]): 0 | Spanishneedles plant response rating (Spanishneedles; [11]): 0 | Spanishneedles plant response rating (Spanishneedles; [12]): 0 | Plant response rating, Spanishneedles (Spanishneedles; Rate 250 g/ha): 20 | Plant response rating, Com. groundsel (common groundsel; [13]): 0 | Plant response rating, Com. groundsel (common groundsel; [10]): 40 | Plant response rating, Com. groundsel (common groundsel; [11]): 100 | Plant response rating, Com. groundsel (common groundsel; [12]): 100 | Plant response rating, Com. groundsel (common groundsel; Rate 250 g/ha): 100 | Plant response rating, Alexandergrass (Alexandergrass; [13]): 0 | Plant response rating, Alexandergrass (Alexandergrass; [10]): 0 | Plant response rating, Alexandergrass (Alexandergrass; [11]): 50 | Plant response rating, Alexandergrass (Alexandergrass; [12]): 100 | Plant response rating, Alexandergrass (Alexandergrass; Rate 250 g/ha): 100 | Plant response rating, Green foxtail (Green foxtail [8]; Rate 64 g/ha): 100 | Plant response rating, Green foxtail (Green foxtail [8]; Rate 125 g/ha): 100 | Plant response rating, Itchgrass (itchgrass; [13]): 0 | Plant response rating, Itchgrass (itchgrass; [10]): 0 | Plant response rating, Itchgrass (itchgrass; [11]): 20 | Plant response rating, Itchgrass (itchgrass; [12]): 20 | Plant response rating, Itchgrass (itchgrass; Rate 250 g/ha): 30 | Green foxtail plant response rating (Green foxtail [9]; Rate 64 g/ha): 100 | Green foxtail plant response rating (Green foxtail [9]; Rate 125 g/ha): 100
